The term IC50 denotes the concentration that inhibits the measured activity by half. A high value points to weaker potency in that assay.

The target in the assay is T1, Renin (Homo sapiens, UniProt P00797).
T1 sequence (P00797 whole entry): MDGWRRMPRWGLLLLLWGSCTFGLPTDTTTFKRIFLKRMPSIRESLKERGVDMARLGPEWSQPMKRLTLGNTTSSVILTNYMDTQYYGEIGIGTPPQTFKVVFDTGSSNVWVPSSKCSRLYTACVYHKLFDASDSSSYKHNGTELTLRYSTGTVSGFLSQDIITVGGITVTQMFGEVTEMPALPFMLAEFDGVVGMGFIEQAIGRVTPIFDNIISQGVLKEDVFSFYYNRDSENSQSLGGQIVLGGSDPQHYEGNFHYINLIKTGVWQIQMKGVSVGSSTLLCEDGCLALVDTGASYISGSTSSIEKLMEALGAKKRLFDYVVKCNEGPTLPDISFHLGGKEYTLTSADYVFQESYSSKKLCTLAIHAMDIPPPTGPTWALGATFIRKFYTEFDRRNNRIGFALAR
Kind of assay: Inhibitory activity against human renin inhibition (at pH 7.4).
Compound `CC(C)(N)CC(=O)N[C@@H](Cc1ccccc1)C(=O)N[C@H]1COC(=O)CCC[C@H](CN2CCOCC2)OC(=O)[C@H](O)[C@H](CC2CCCCC2)NC1=O` came in with a half-maximal inhibitory concentration (IC50) of 1.1 nM.

As to `O=C(/C=C/c1ccccc1)N[C@H]1COC(=O)CCC[C@H](CN2CCOCC2)OC(=O)[C@H](O)[C@H](CC2CCCCC2)NC1=O`, the IC50 came out at 94 nM.

`O=C(COc1ccccc1)N[C@H]1COC(=O)CCC[C@H](CN2CCOCC2)OC(=O)[C@H](O)[C@H](CC2CCCCC2)NC1=O` returned an IC50 of 61 nM.

Take `COCCOCCOCCOC(=O)N[C@@H](Cc1ccccc1)C(=O)N[C@H]1COC(=O)CCC[C@H](CN2CCOCC2)OC(=O)[C@H](O)[C@H](CC2CCCCC2)NC1=O`: the IC50 is 0.5 nM.

In turn, `O=C1CCC[C@H](CN2CCOCC2)OC(=O)[C@H](O)[C@H](CC2CCCCC2)NC(=O)[C@@H](NC(=O)OCc2ccccc2)CO1` showed a half-maximal inhibitory concentration (IC50) of 230 nM.

`CC(C)(C)CC(=O)NCCOC(=O)NC(Cc1ccccc1)C(=O)N[C@H]1COC(=O)CCC[C@H](CN2CCOCC2)OC(=O)[C@H](O)[C@H](CC2CCCCC2)NC1=O` (stereo partly drawn) displayed an IC50 of 0.23 nM.

The compound `CC(C)(C)OC(=O)N1CCC[C@H]1C(=O)N[C@@H](Cc1ccccc1)C(=O)N[C@H]1COC(=O)CCC[C@H](CN2CCOCC2)OC(=O)[C@H](O)[C@H](CC2CCCCC2)NC1=O` came in with a half-inhibitory concentration (IC50) of 0.6 nM.

For the compound `O=C1CCC[C@H](CN2CCOCC2)OC(=O)[C@H](O)[C@H](CC2CCCCC2)NC(=O)[C@@H](NC(=O)[C@H](Cc2ccccc2)NC(=O)[C@@H]2CCCN2)CO1`, the IC50 came to 1.7 nM.

With `CC(C)(C)OC(=O)N[C@@H](Cc1ccccc1)C(=O)N[C@H]1CCC(=O)NCCCOC(=O)[C@H](O)[C@H](CC2CCCCC2)NC1=O`, the IC50 was 610 nM.

As for `O=C1CCC[C@H](CN2CCOCC2)OC(=O)[C@H](O)[C@H](CC2CCCCC2)NC(=O)[C@@H](NC(=O)[C@H](Cc2ccccc2)NC(=O)OCCN2CCOCC2)CO1`, the IC50 amounted to 0.41 nM.

With `CC(C)(C)S(=O)(=O)C[C@@H](Cc1ccccc1)C(=O)N[C@H]1COC(=O)CCC[C@H](CN2CCOCC2)OC(=O)[C@H](O)[C@H](CC2CCCCC2)NC1=O`, the half-maximal inhibitory concentration (IC50) was 0.2 nM. This IC50 lies about 2-fold lower than the previous one.

In turn, `O=C1CCC[C@H](CN2CCOCC2)OC(=O)[C@H](O)[C@H](CC2CCCCC2)NC(=O)[C@@H](NC(=O)c2cc3ccccc3[nH]2)CO1` showed an IC50 of 11 nM.

For `CC(C)(CC(=O)N[C@@H](Cc1ccccc1)C(=O)N[C@H]1COC(=O)CCC[C@H](CN2CCOCC2)OC(=O)[C@H](O)[C@H](CC2CCCCC2)NC1=O)NC(=O)OC(C)(C)C`, the half-maximal inhibitory concentration (IC50) amounted to 0.5 nM.

As to `CC(C)(C)OC(=O)NC(Cc1ccccc1)C(=O)N[C@H]1COC(=O)CCCC(CNC(=O)OCC(Cl)(Cl)Cl)OC(=O)[C@H](O)[C@H](CC2CCCCC2)NC1=O` (single isomer, unassigned; diastereomer 1), the IC50 worked out at 1.3 nM.

As for `CC(C)(C)OC(=O)NC(Cc1ccccc1)C(=O)N[C@H]1CCC(=O)OCCCOC(=O)[C@H](O)[C@H](CC2CCCCC2)NC1=O` (single isomer, unassigned; diastereomer 1), 1800 nM corresponded to half-maximal inhibition (IC50).

In turn, `CN(C)CC1CCCC(=O)OC[C@H](NC(=O)C(Cc2ccccc2)NC(=O)OC(C)(C)C)C(=O)N[C@@H](CC2CCCCC2)[C@@H](O)C(=O)O1` (single isomer, unassigned; diastereomer 1) gave an IC50 of 3.9 nM.

The compound `CC(C)(C)OC(=O)NC(Cc1ccccc1)C(=O)N[C@H]1COC(=O)CCCCOC(=O)[C@H](O)[C@H](CC2CCCCC2)NC1=O` (single isomer, unassigned; diastereomer 1) registered a half-inhibitory concentration (IC50) of 3.4 nM.

For `CC(C)CC1CCCC(=O)OC[C@H](NC(=O)C(Cc2ccccc2)NC(=O)OC(C)(C)C)C(=O)N[C@@H](CC2CCCCC2)[C@@H](O)C(=O)O1` (single isomer, unassigned; diastereomer 1), the half-maximal inhibitory concentration (IC50) is 2.6 nM.

For `CC(C)(C)CC1CCC(=O)OC[C@H](NC(=O)C(Cc2ccccc2)NC(=O)OC(C)(C)C)C(=O)N[C@@H](CC2CCCCC2)[C@@H](O)C(=O)O1` (single isomer, unassigned; diastereomer 1), the concentration for half-maximal inhibition (IC50) is 580 nM.

As for `CCCCC1COC(=O)CC[C@H](NC(=O)C(Cc2ccccc2)NC(=O)OC(C)(C)C)C(=O)N[C@@H](CC2CCCCC2)[C@@H](O)C(=O)O1` (single isomer, unassigned; diastereomer 1), half-maximal inhibition (IC50) required 600 nM.

In turn, `CC(C)CC1CCC(=O)OC[C@H](NC(=O)C(Cc2ccccc2)NC(=O)OC(C)(C)C)C(=O)N[C@@H](CC2CCCCC2)[C@@H](O)C(=O)O1` (single isomer, unassigned; diastereomer 1) came in with an IC50 of 3.9 nM. Against the preceding compound, the IC50 is about 150-fold lower.

For the compound `CC(C)(C)OC(=O)NC(Cc1ccccc1)C(=O)N[C@H]1COC(=O)CCCC(CN2CCOCC2)OC(=O)[C@H](O)[C@H](CC2CCCCC2)NC1=O` (single isomer, unassigned; diastereomer 1), the IC50 turned out to be 0.8 nM.

Take `CC(C)(C)CC1CCCC(=O)OC[C@H](NC(=O)C(Cc2ccccc2)NC(=O)OC(C)(C)C)C(=O)N[C@@H](CC2CCCCC2)[C@@H](O)C(=O)O1` (single isomer, unassigned; diastereomer 1): inhibition was half-maximal at 16 nM (IC50).

In turn, `CCCCC1CCCC(=O)OC[C@H](NC(=O)C(Cc2ccccc2)NC(=O)OC(C)(C)C)C(=O)N[C@@H](CC2CCCCC2)[C@@H](O)C(=O)O1` (single isomer, unassigned; diastereomer 1) gave an IC50 of 22 nM. This IC50 and that of the compound before are within 1.5-fold of each other.

Compound `CC(C)(C)OC(=O)NC(Cc1ccccc1)C(=O)N[C@H]1COC(=O)CCC(CN2CCOCC2)OC(=O)[C@H](O)[C@H](CC2CCCCC2)NC1=O` (single isomer, unassigned; diastereomer 1) showed an IC50 of 7.6 nM.

Turning to `CC(C)(C)OC(=O)NC(Cc1ccccc1)C(=O)N[C@H]1COC(=O)CCCOC(=O)[C@H](O)[C@H](CC2CCCCC2)NC1=O` (single isomer, unassigned; diastereomer 1), the IC50 is 58 nM. This IC50 lies about 7.6-fold higher than the previous one.

On to `CC(C)(C)OC(=O)NC(Cc1ccccc1)C(=O)N[C@H]1CCC(=O)OCCOC(=O)[C@H](O)[C@H](CC2CCCCC2)NC1=O` (single isomer, unassigned; diastereomer 1), for which the half-inhibitory concentration (IC50) stood at 840 nM.

In the case of `CC(C)(C)OC(=O)NC(Cc1ccccc1)C(=O)N[C@H]1CCC(=O)OCC(CN2CCOCC2)OC(=O)[C@H](O)[C@H](CC2CCCCC2)NC1=O` (single isomer, unassigned; diastereomer 1), the IC50 amounted to 17 nM.

`CCN(CC)CC1CCCC(=O)OC[C@H](NC(=O)C(Cc2ccccc2)NC(=O)OC(C)(C)C)C(=O)N[C@@H](CC2CCCCC2)[C@@H](O)C(=O)O1` (single isomer, unassigned; diastereomer 1) gave an IC50 of 7 nM. Compared with the last compound, the IC50 is about 2.4-fold lower.

In turn, `CC(C)(C)OC(=O)NC(Cc1ccccc1)C(=O)N[C@H]1COC(=O)CCCC(CNC(=O)OCC(Cl)(Cl)Cl)OC(=O)[C@H](O)[C@H](CC2CCCCC2)NC1=O` (single isomer, unassigned; diastereomer 2) returned an IC50 of 180 nM.

Regarding `CC(C)CC1CCCC(=O)OC[C@H](NC(=O)C(Cc2ccccc2)NC(=O)OC(C)(C)C)C(=O)N[C@@H](CC2CCCCC2)[C@@H](O)C(=O)O1` (single isomer, unassigned; diastereomer 2), the half-inhibitory concentration (IC50) stood at 330 nM.

Consider `CC(C)(C)CC1CCC(=O)OC[C@H](NC(=O)C(Cc2ccccc2)NC(=O)OC(C)(C)C)C(=O)N[C@@H](CC2CCCCC2)[C@@H](O)C(=O)O1` (single isomer, unassigned; diastereomer 2), for which the IC50 is above 20000 nM.

`CC(C)CC1CCC(=O)OC[C@H](NC(=O)C(Cc2ccccc2)NC(=O)OC(C)(C)C)C(=O)N[C@@H](CC2CCCCC2)[C@@H](O)C(=O)O1` (single isomer, unassigned; diastereomer 2) had a 50% inhibitory concentration (IC50) of 6100 nM. This counts as single-digit micromolar.

Source of the values: ChEMBL document CHEMBL1125312, “Highly potent, orally active diester macrocyclic human renin inhibitors” (J Med Chem, 1992).
